Earlier results, collected in PubChem BioAssay AID1259409 (Chemical Carcinogenesis Research Information System (CCRIS), 2018).

Tested on: rodent chemically induced tumor inhibition, incidence and multiplicity
Assay: CCRIS tumor inhibitor studies
Conditions: for tumour outcome (control, treated, inhibition, significance): Route [Inhibitor]: ORAL; for outcome: Carcinogen: N,N-Diethylnitrosamine, Route [Inhibitor]: Intravenous, Species: Rat, Strain/Sex: Swiss-Albino/Male, Target Tissue: Type of Lesion: Liver: preneoplastic lesions, Promoter: None

O=c1c(O)c(-c2ccc(O)c(O)c2)oc2cc(O)cc(O)c12
tumour outcome (control, treated, inhibition, significance) (Carcinogen: DIETHYLNITROSAMINE, 55-18-5, N-METHYLNITROSOUREA, 684-93-5, 1,2-DIMETHYLHYDRAZINE, 540-73-8, N-BUTYL-N-(4-HYDROXYB, Carcinogen: DIETHYLNITROSAMINE, 55-18-5, N-METHYLNITROSOUREA, 684-93-5, 1,2-DIMETHYLHYDRAZINE, 540-73-8, N-BUTYL-N-(4-HYDROXYB, Dose [Inhibitor]: 0, 1% IN DIET FOR 32 WK BEGINNING POST CARCINOGEN TREATMENT (STUDY DURATION: 36 WK), Species: RAT, Strain/Sex: F344/MALE, Target Tissue: Type of Lesion: SMALL INTESTINE: ADENOMA, Dose [Carcinogen]: 100 MG/KG DEN ONCE, 20 MG/KG MNU 4 TIMES, 40 MG/KG DMH 4 TIMES, 0.05% BBN IN DRINKING WATER FOR 2 WK, 0.1% DHPN IN D, Dose [Carcinogen]: 100 MG/KG DEN ONCE, 20 MG/KG MNU 4 TIMES, 40 MG/KG DMH 4 TIMES, 0.05% BBN IN DRINKING WATER FOR 2 WK, 0.1% DHPN IN D, Promoter: NONE USED): 6/14 (43%), 0/12 (0%), 100%, p<0.05 | tumour outcome (control, treated, inhibition, significance) (Carcinogen: DIETHYLNITROSAMINE, 55-18-5, N-METHYLNITROSOUREA, 684-93-5, 1,2-DIMETHYLHYDRAZINE, 540-73-8, N-BUTYL-N-(4-HYDROXYB, Carcinogen: DIETHYLNITROSAMINE, 55-18-5, N-METHYLNITROSOUREA, 684-93-5, 1,2-DIMETHYLHYDRAZINE, 540-73-8, N-BUTYL-N-(4-HYDROXYB, Dose [Inhibitor]: 0, 1% IN DIET FOR 32 WK BEGINNING POST CARCINOGEN TREATMENT (STUDY DURATION: 36 WK), Species: RAT, Strain/Sex: F344/MALE, Target Tissue: Type of Lesion: SMALL INTESTINE: CARCINOMA, Dose [Carcinogen]: 100 MG/KG DEN ONCE, 20 MG/KG MNU 4 TIMES, 40 MG/KG DMH 4 TIMES, 0.05% BBN IN DRINKING WATER FOR 2 WK, 0.1% DHPN IN D, Dose [Carcinogen]: 100 MG/KG DEN ONCE, 20 MG/KG MNU 4 TIMES, 40 MG/KG DMH 4 TIMES, 0.05% BBN IN DRINKING WATER FOR 2 WK, 0.1% DHPN IN D, Promoter: NONE USED): 5/14 (36%), 0/12 (0%), 100%, p<0.05 | tumour outcome (control, treated, inhibition, significance) (Carcinogen: DIETHYLNITROSAMINE, 55-18-5, N-METHYLNITROSOUREA, 684-93-5, 1,2-DIMETHYLHYDRAZINE, 540-73-8, N-BUTYL-N-(4-HYDROXYBU, Carcinogen: DIETHYLNITROSAMINE, 55-18-5, N-METHYLNITROSOUREA, 684-93-5, 1,2-DIMETHYLHYDRAZINE, 540-73-8, N-BUTYL-N-(4-HYDROXYBU, Dose [Inhibitor]: 0, 1% IN DIET FOR 32 WK BEGINNING POST CARCINOGEN TREATMENT (STUDY DURATION: 36 WK), Species: RAT, Strain/Sex: F344/MALE, Target Tissue: Type of Lesion: LARGE INTESTINE: ADENOMA, Dose [Carcinogen]: 100 MG/KG DEN ONCE, 20 MG/KG MNU 4 TIMES, 40 MG/KG DMH 4 TIMES, 0.05% BBN IN DRINKING WATER FOR 2 WK, 0.1% DHPN IN D, Dose [Carcinogen]: 100 MG/KG DEN ONCE, 20 MG/KG MNU 4 TIMES, 40 MG/KG DMH 4 TIMES, 0.05% BBN IN DRINKING WATER FOR 2 WK, 0.1% DHPN IN D, Promoter: NONE USED): 7/14 (50%), 3/12 (25%), 50%, not significant | tumour outcome (control, treated, inhibition, significance) (Carcinogen: DIETHYLNITROSAMINE, 55-18-5, N-METHYLNITROSOUREA, 684-93-5, 1,2-DIMETHYLHYDRAZINE, 540-73-8, N-BUTYL-N-(4-HYDROXYBU, Carcinogen: DIETHYLNITROSAMINE, 55-18-5, N-METHYLNITROSOUREA, 684-93-5, 1,2-DIMETHYLHYDRAZINE, 540-73-8, N-BUTYL-N-(4-HYDROXYBU, Dose [Inhibitor]: 0, 1% IN DIET FOR 32 WK BEGINNING POST CARCINOGEN TREATMENT (STUDY DURATION: 36 WK), Species: RAT, Strain/Sex: F344/MALE, Target Tissue: Type of Lesion: LUNG: ADENOMA, Dose [Carcinogen]: 100 MG/KG DEN ONCE, 20 MG/KG MNU 4 TIMES, 40 MG/KG DMH 4 TIMES, 0.05% BBN IN DRINKING WATER FOR 2 WK, 0.1% DHPN IN D, Dose [Carcinogen]: 100 MG/KG DEN ONCE, 20 MG/KG MNU 4 TIMES, 40 MG/KG DMH 4 TIMES, 0.05% BBN IN DRINKING WATER FOR 2 WK, 0.1% DHPN IN D, Promoter: NONE USED): 6/14 (43%), 3/12 (25%), 42%, not significant | outcome (55-18-5, Dose [Inhibitor]: 0.5 ml suspension of 0.2% tween 80 aqueous soln with 0.898 mM quercetin once a wk for 16 wk, Dose [Carcinogen]: 200 mg/kg bw in 0.5 ml olive oil three times at 15 day intervals beginning on wk 1): 1205+/-102, 1111+/-56, not significant | outcome (55-18-5, Dose [Inhibitor]: 0.5 ml suspension of galactosylated liposomal quercitin, 0.898 mM, once a wk for 16 wk, study duration 18 wk, Dose [Carcinogen]: 200 mg/kg bw in 0.5 ml olive oil three times at end of 1st, 3rd and 5th wk, study duration 18 wk): 1205+/-102, 361+/-22, significant | outcome (55-18-5, Dose [Inhibitor]: 0.5 ml suspension of liposomal quercitin, 0.898 mM, once a wk for 16 wk, study duration 18 wk, Dose [Carcinogen]: 200 mg/kg bw in 0.5 ml olive oil three times at end of 1st, 3rd and 5th wk, study duration 18 wk): 1205+/-102, 861+/-81, significant | tumour outcome (control, treated, inhibition, significance) (Carcinogen: N-BUTYL-N-(4-HYDROXYBUTYL)NITROSAMINE, 3817-11-6, Dose [Inhibitor]: 5% DIET DAILY FOR 34 WK STARTING AT COMPLETION OF CARCINOGEN TREATMENT (STUDY DURATION: 38 WK), Species: RAT, Strain/Sex: F344/MALE, Target Tissue: Type of Lesion: URINARY BLADDER: PAPILLOMA, Dose [Carcinogen]: 0.01% IN DRINKING WATER FOR 4 WK, Promoter: NONE USED): 33%, 17%, 48%, not significant | tumour outcome (control, treated, inhibition, significance) (Carcinogen: N-NITROSODIETHYLAMINE, 55-18-5, 2-ACETYLAMINOFLUORENE, 53-93-6, CARBON TETRACHLORIDE, 56-23-5, Carcinogen: N-NITROSODIETHYLAMINE, 55-18-5, 2-ACETYLAMINOFLUORENE, 53-93-6, CARBON TETRACHLORIDE, 56-23-5, Dose [Inhibitor]: 0, 1.5% IN DIET FOR 29 WK ADMINISTERED TO RATS BEARING PERSISTENT NODULES FOLLOWING CARCINOGEN TREATMENT (STUDY DURATION, Species: RAT, Strain/Sex: F344/MALE, Target Tissue: Type of Lesion: LIVER: HEPATOCELLULAR CARCINOMA, Dose [Carcinogen]: 200 MG/KG BW DEN ONCE, 0.002% 2-AAF IN DIET FOR 2 WK, 1 MG/KG BW CCL4 MIDWAY IN 2-AAF TREATMENT, Dose [Carcinogen]: 200 MG/KG BW DEN ONCE, 0.002% 2-AAF IN DIET FOR 2 WK, 1 MG/KG BW CCL4 MIDWAY IN 2-AAF TREATMENT, Promoter: NONE USED): 7/8 (88%), 7/11 (64%), 27%, not significant | tumour outcome (control, treated, inhibition, significance) (Carcinogen: N-NITROSODIETHYLAMINE, 55-18-5, 2-ACETYLAMINOFLUORENE, 53-93-6, CARBON TETRACHLORIDE, 56-23-5, Carcinogen: N-NITROSODIETHYLAMINE, 55-18-5, 2-ACETYLAMINOFLUORENE, 53-93-6, CARBON TETRACHLORIDE, 56-23-5, Dose [Inhibitor]: 0, 1.5% IN DIET FOR 29 WK ADMINISTERED TO RATS BEARING PERSISTENT NODULES FOLLOWING CARCINOGEN TREATMENT (STUDY DURATION, Species: RAT, Strain/Sex: F344/MALE, Target Tissue: Type of Lesion: LIVER: HEPATOCELLULAR CARCINOMA, Dose [Carcinogen]: 200 MG/KG BW DEN ONCE, 0.002% 2-AAF IN DIET FOR 2 WK, 1 ML/KG BW CCL4 MIDWAY IN 2-AAF TREATMENT, Dose [Carcinogen]: 200 MG/KG BW DEN ONCE, 0.002% 2-AAF IN DIET FOR 2 WK, 1 ML/KG BW CCL4 MIDWAY IN 2-AAF TREATMENT, Promoter: PHENOBARBITAL, 50-06-6): 12/12 (100%), 13/14 (93%), 7%, not significant | tumour outcome (control, treated, inhibition, significance) (Carcinogen: N-NITROSOMETHYLUREA, 684-93-5, Dose [Inhibitor]: 5.0% IN DIET BEGINNING 1 WK PRIOR TO CARCINOGEN DOSE AND CONTINUING FOR DURATION OF STUDY (STUDY DURATION: 21 WK), Species: RAT, Strain/Sex: SPRAGUE-DAWLEY/FEMALE, Target Tissue: Type of Lesion: MAMMARY GLAND: TUMOR, Dose [Carcinogen]: 50 MG/KG BW IN 0.9% SALINE AND 5% ACETIC ACID STABILIZER ONCE, Promoter: NONE USED): 78%, 70%, 10%, not calculated | tumour outcome (control, treated, inhibition, significance) (Dose [Inhibitor]: 0, 2000 PPM IN DIET BEGINNING 8 WK PRIOR TO CARCINOGEN AND CONTINUING FOR 6 WK POST CARCINOGEN (STUDY DURATION: 68 WK), Species: FISH, Strain/Sex: RAINBOW TROUT, Target Tissue: Type of Lesion: LIVER: HEPATOCELLULAR CARCINOMA, Dose [Carcinogen]: 20 PPB IN DIET FOR 2 WK, Promoter: NONE USED): 43/118 (36%), 30/115 (26%), 27%, not significant
